Read-outs that look alike come from different tables or passages of the source.
Tests used:
[1] = cited from earlier work
[2] = cited from earlier work; remark: listed apart in the source
[3] = cited from earlier work; remark: listed apart in the source
IL-8 secretion = experiment: Inhibitory activity on Bradykinin B1 agonist-induced secretion of IL-8 in human IMR-90 cells; format: cell-based; details: 30 min compound, stimulated with 0.1 μM Lys-[Des-Arg9]Bradykinin and 0.1 μM Sar-[D-Phe8]-des-Arg9-Bradykinin for 5 hours
From the text: (§1) Inhibitory activity on Bradykinin B1 agonist-induced secretion of IL-6 and IL-8 in human IMR-90 cells
(§2) The effect of the compound examples on secretion of the cytokine IL-6 and IL-8 has been investigated in the human foetal lung fibroblast IMR-90 cell line. Here the induction of the cytokine secretion was induced by the Bradykinin B1 agonists Lys-[Des-Arg9]Bradykinin (CAS 71800-36-7, Tocris Bioscience) and Sar-[D-Phe8]-des-Arg9-Bradykinin (CAS 126959-88-4, Tocris Bioscience) leading to the activation of the Bradykinin B1-driven signalling pathway. This effect is indicative for a strong anti-inflammatory mode of action in kinin driven inflammation.
(§3) IMR-90 cells were cultured in Eagle's Minimum Essential Medium (EMEM) containing 2 mM L-glutamine, 1 g/L glucose, 1.5 g/L NaHCO3, 1 mM sodium pyruvate and non-essential amino acids (ATCC, 30-2003™) supplemented with 10% FBS (Biochrom, S0615) and 50 U/mL Penicillin, 50 μg/mL Streptomycin (PAA, P11-010). The assay was performed in EMEM and a cell density of […] IMR-90 cells/96-well. The compound examples have been serial diluted in 100% DMSO and evaluated at 8 different concentrations within the range of 3 nM and 10 μM and a final DMSO concentration of 0.4%. The IMR-90 cells have been incubated with the respective concentration of the compound for 30 min. The enhanced secretion of IL-6 and IL-8 was induced by the stimulation of these cells with 0.1 μM Lys-[Des-Arg9]Bradykinin (Tocris, catalogue no. 3225) and 0.1 μM Sar-[D-Phe8]-des-Arg9-Bradykinin (Tocris, catalogue no. 3230) for 5 hours at 37° C. and 5% C02. Further, cells have been treated with Lys-[Des-Arg9]Bradykinin and Sar-[D-Phe8]-des-Arg9-Bradykinin as neutral control and with 0.1% DMSO as inhibitor control. The amount of IL-6 and IL-8 in the supernatant was determined using the Human Prolnflammatory Panel II (4-Plex) (MSD, K15025B) according to manufacturer's instruction. Briefly, supernatants were added onto assay plates and incubated at room temperature for 1-2 h with vigorous shaking at 600 rpm. Detection antibodies were then added onto the supernatants and incubated at room temperature for an additional 1-2 h with vigorous shaking at 600 rpm. Plates were washed three times with phosphate-buffered saline (PBS; 137 mM NaCl, 2.7 mM KCl, 6.5 mM Na2HPO4, 1.7 mM KH2P04) containing 0.05% Tween-20 (Bio-Rad, 161-0781) and electrochemiluminescence detected using the MSD Sector Imager 6000 plate reader. The cell viability was measured using the CellTiter-Glo Luminescent Assay (Promega, G7571) following the manufacturers protocol. Briefly, the CellTiter-Glo Reagent was diluted with PBS (1:1) and added directly to cells. After incubation and shaking for 10 minutes luminescent signal was measured which is proportional to the amount of ATP present.
(§4) The effect of the compound on the amount of secreted cytokine has been calculated as 100/(measured cytokine concentration of neutral control-measured cytokine concentration of inhibitor control)*(measured cytokine concentration of compound dose-measured cytokine concentration of inhibitor control). IC50 values are determined using 4-parameter-fit.
(§5) The compound examples were tested in triplicates per plate and the inhibitory activity was determined as the relation between neutral and inhibitor control in percent. IC50 values were calculated using the 4-parameter logistic model.

IL-6 secretion = experiment: Inhibitory activity on Bradykinin B1 agonist-induced secretion of IL-6 in human IMR-90 cells; format: cell-based; details: 30 min compound, stimulated with 0.1 μM Lys-[Des-Arg9]Bradykinin and 0.1 μM Sar-[D-Phe8]-des-Arg9-Bradykinin for 5 hours
From the text: as §1, §2, §3, §4, §5

[4] = target: T1, human Bradykinin B1 receptor (Homo sapiens, UniProt P46663); experiment: Calcium flux Assay (FLIPR) with recombinant CHO-K1 cells expressing human Bradykinin B1 receptor, in presence (hB1 IC50) or absence (hB1 free IC50) of 0.1% BSA; format: cell-based
T1 construct: host or cells: CHO-K1
T1 sequence (P46663 1-353): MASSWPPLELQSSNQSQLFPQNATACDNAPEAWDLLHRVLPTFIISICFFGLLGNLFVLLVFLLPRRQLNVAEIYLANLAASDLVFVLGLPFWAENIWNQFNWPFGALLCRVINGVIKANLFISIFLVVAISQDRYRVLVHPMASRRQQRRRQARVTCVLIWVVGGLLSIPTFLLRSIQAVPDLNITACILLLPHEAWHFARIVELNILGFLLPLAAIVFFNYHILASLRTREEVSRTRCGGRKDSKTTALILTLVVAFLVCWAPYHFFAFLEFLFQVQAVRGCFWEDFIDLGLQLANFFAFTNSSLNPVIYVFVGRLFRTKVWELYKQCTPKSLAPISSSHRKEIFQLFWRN

[5] = due to metabolic tability; cited from earlier work
[6] = target: T2, native human Bradykinin B1 receptor (Homo sapiens, UniProt P46663); experiment: Calcium flux Assay (FLIPR) with human fibroblasts expressing Bradykinin B1 receptor (hB1 IMR-90); format: cell-based; details: IMR-90 human fibroblasts expressing native Bradykinin B1 receptor
T2 construct: which express native human Bradykinin B1 receptor after induction with human IL-10; Coriell Institute; host or cells: IMR-90 human foetal lung fibroblasts, cytokine-induced
T2 sequence (P46663 1-353): T1 sequence (P46663 1-353)
How it was run: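 IMR-90 human foetal lung fibroblasts induced with 0.35 ng/mL […] for 3 h, Fluo-4/AM-loaded, preincubated with compound (8 concentrations, triplicate) for 30 min at 28 °C, then challenged with Lys-(Des-Arg)-bradykinin at EC90. Ca2+ fluorescence was read at 538 nm; full inhibition set by 20 µM Lys-(Des-Arg-Leu)-bradykinin; IC50 derived.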

[7] = in absence of 0.1% BSA, read-out: hB1 free IC50

| Molecule | IC50 (IL-8 secretion) | IC50 (IL-6 secretion) | IC50 [4, 7] | other results |
| --- | --- | --- | --- | --- |
| C[C@@H]1CC[C@H](C)N1C(=O)c1ccc([C@@H](C)NC(=O)C2(NC(=O)c3cc(F)cc(C(F)(F)F)c3)CC2)c(F)c1 |  |  |  | human metabolic stability [1]: poor; pharmacokinetic profile in rat [2]: reasonable; aqueous solubility [3]: reasonable |
| CC(C)(C)c1ccn(-c2ccc(NC(=O)C3(c4ccc(C(F)(F)F)cc4F)CC3)cc2-c2nnn[nH]2)n1 [Example 380, N-[4-(3-tert-Butyl-1H-pyrazol-1-yl)-3-(1H-tetrazol-5-yl)phenyl]-1-[2-fluoro-4-(trifluoromethyl)phenyl]cyclopro-panecarboxamide] | 345 nM | > 10000 nM | 30.8 nM |  |
| O=C(Nc1ccc(-n2ccc(CC(F)(F)F)n2)c(-c2nnn[nH]2)c1)C1(c2ccc(C(F)(F)F)cc2F)CC1 [Example 389, 1-[2-fluoro-4-(trifluoromethyl)phenyl]-N-{3-(1H-tetrazol-5-yl)-4-[3-(2,2,2-trifluoroethyl)-1H-pyrazol-1-yl]phenyl}cyclo-propanecarboxa-mide] | 258 nM | 253 nM | 11 nM |  |
| CC(C)(C)c1cn(-c2ccc(NC(=O)C3(c4ccc(OC(F)(F)F)cc4F)CC3)cc2-c2nnn[nH]2)cn1 [Example 404, N-[4-(4-tert-butyl-1H-imidazol-1-yl)-3-(1H-tetrazol-5-yl)phenyl]-1-[2-fluoro-4-(trifluoromethoxy)phenyl]cyclo-propanecarboxa-mide] | 59 nM | 69 nM | 6.36 nM |  |
| C[C@@H](NC(=O)C1(NC(=O)C(F)(F)F)CC1)c1ccc(-c2cccc(Cl)c2C(=O)O)cc1F [MK-0686] |  |  |  | pharmacokinetic profile [5]: suboptimal |
| N-[4-(6- ethoxypyridin-3- yl)-3-(1H- tetrazol-5- yl)phenyl]-1-(4- ethylphenyl) cyclopropane- carboxamide [Example 69] |  |  | 6.75 nM | IC50 [6]: 16.2 nM; IC50 ([4]; in presence of 0.1% BSA, read-out: hB1 IC50): 30.9 nM |
